Results published in patent US20230183303A1, “Therapeutic Potential of Peptides from the "Netrin-Like" Domain of the FRZB Protein” (Université de Lorraine, priority 2020, published 2023).

Columns and labels:
MMP13 = MMP13 enzymatic activity in culture supernatants of mouse articular chondrocytes; format: cell-based; conditions: PEP16 at 300 ng/mL with IL1β at 100 pg/mL; 24 h
Description: (§1) Mouse articular chondrocyte (MACs) were isolated from femoral heads by enzymatic digestion of whole femoral head caps. Samples were washed three times in 1% AB/phosphate buffered saline (PBS) and incubated with 2 mg/ml pronase (Roche)/DMEM-F12 at 37° C. for 1 h at slow rotation 100 rpm followed by a 3 h incubation with 1.5 mg/ml collagenase B (Roche)/DMEM-F12 at 37° C. Cells were seeded at 1×10^6 cells/[…], and cultured for 7 to 14 days in growth medium DMEM-F12, containing 1% AB (Gibco), 10% FBS (Gibco) and 5% L-glutamine (Thermoscientific). Passage 1 cells were utilized for the experiments. The culture supernatants were then harvested in order to perform MMP13 enzymatic activity assay. The evaluation of the expression of genes of interest included articular chondrocyte markers (aggrecan, type 2 collagen (col2a1)), YAP/TAZ target genes (ankrd) and pro-catabolic enzyme involved in the pathophysiology of OA (mmp3).
The MMP13 enzymatic activity was assessed using the MMP13 fluorogenic substrate (Merck Millipore). Briefly, culture supernatants harvested at the end of the different experiments were mixed with 1.5 mM of 4-aminophenylmercuric acetate, and incubated for 1 h at 37° C., in order to turn every pro-MMPs into active MMPs. […] Fluorescence was evaluated using the following parameters, excitation 325 nm and emission 393 nm, on the Varioskan Flash device (Thermo Fisher Scientific). […]

CamKII pathway [1] = assay: Western blot of CamKII pathway activation in ATDC5 micromasses; format: cell-based, mouse; conditions: PEP16 at 100 and 300 ng/mL; pre-mineralization phase of chondrogenesis (D14)
Description: (§2) Mouse chondrogenic ATDC5 cells (cartilage-specific chondrogenic strain) were cultured until confluent in maintenance medium containing 1:1 Dulbecco's modified Eagle's medium (DMEM): Ham's F-12 mix (Gibco) supplemented with 1% antibiotic (AB, Penicillin-Streptomycin, Gibco), 5% fetal bovine serum (FBS) (Gibco) and enriched with […] human transferrin (Sigma) and 30 nM sodium selenite (Sigma). Cells were trypsinized, washed and resuspended at 2.10^7 cells/mL in a chondrogenic medium made of maintenance medium enriched by 1× of ITS premix (resulting in 10 μg/mL insulin, 10 μg/mL human transferrin and 30 nM sodium selenite) (Life technologies). One droplet of cell suspension (10 μL) was placed at the center of each well of a 24-well plate. Cells were allowed to adhere for 2 h at 37° C., followed by addition of 500 μL chondrogenic medium supplemented. […] After 14 days, induction of hypertrophic differentiation and mineralization was induced by the mineralization medium made of α-MEM medium (Gibco) containing 1% AB, 5% FBS, 5 μg/ml human transferrin, 1× of ITS premix, 50 μg/ml ascorbic acid-2-phosphate (AA) (Sigma) and 10 mM β-glycerophosphate (BGP) (Sigma). […] Micromasses were collected at time points 1, 7, 14 21 and 28 days. Each time point was processed in three technical replicates. The medium was changed every other day. […]

MC3T3-E1 cells = assay: qRT-PCR relative expression of genes of interest in MC3T3-E1 cells (osteogenic differentiation); format: cell-based, mouse
Text: (§3) Each time point was processed in three technical replicates. The medium was changed every two days.
(§4) Total RNA was isolated using the Nucleospin RNA II kit (Macherey-Nagel) and reverse-transcribed using the MMLV reverse transcriptase (Thermo Fisher Scientific) following the manufacturers' instructions. The iTaq SYBR green qPCR master mix (BioRad) was used to assess the mRNA expression of target genes of interest. Primer sequences can be provided upon request. The following PCR conditions were used: 1 minute at 95° C., 40 cycles of 15 sec of denaturation at 95° C., followed by 1 minute of annealing-elongation at 60° C. Melting curve analysis was performed to determine the amplification of the specific product. Results were expressed using the comparative threshold method and were normalized to housekeeping gene PPIA (Peptidylprolyl Isomerase A) mRNA level for ATDC5 cells and MACs, or normalized to housekeeping gene S29 (ribosomal protein S29) mRNA level for MC3T3-E1 cells. The Via7 real-time PCR system (Thermo Fisher Scientific) was used for qRT-PCR measurements.
Briefly, MC3T3-E1 cells were differentiated during 14 days as mentioned previously. […] In the same experiment, we also used MC3T3-E1 cells stably overexpressing the NTN domain. Treated cells and NTN overexpressing cells were compared to control cells (CTL).
RNA was isolated and qPCR was performed for ANKRD (YAP/TAZ target gene, indicator of the pathway activity) (FIG. 21).

[2] = system: mouse articular chondrocytes; assay: qRT-PCR relative expression of genes of interest in mouse articular chondrocytes; format: cell-based
Description: as §1, §4

Wnt/β-catenin pathway = assay: Western blot of Wnt/β-catenin pathway activation in ATDC5 micromasses; format: cell-based, mouse; conditions: PEP16 at 100 and 300 ng/mL; day 1, 7, 14, 21; during chondrogenesis
Description: as §2

[3] = system: 8×YAP response elements (8×GTIIC reporter); conditions: PEP16 at 30 ng/ml; 24 h
Description: Results were normalized by-cotransfecting each of the above plasmid with the tyrosine kinase-renilla luciferase plasmid (Promega). Transfections were carried out using the Dharmafect kb transfection reagent (Fisher Scientific). Briefly, reporter plasmids and transfection reagent were diluted in serum-free medium, and then the diluted Dharmafect kb was added to the plasmids for an incubation time of 10 minutes at room temperature. During that time, cells were rinsed with PBS and were placed in fresh maintenance medium. When incubation was over, the mixture of transfection reagent-plasmids was dispensed in each well. Stimulations (with Wnt3a and/or PEP16 and/or PEP16bis) were carried out the next day.

CamKII pathway [4] = assay: Western blot of CamKII pathway activation in MC3T3-E1 cells; format: cell-based, mouse; conditions: PEP16 at 300 or 1000 ng/mL; early osteogenesis stages
Text: as §3

alkaline phosphatase = conditions: 300 ng/ml, 1000 ng/ml; day 1 and day 21; vs CTL
Description: MC3T3-E1 cells were differentiated during 21 days as mentioned previously. […] Treated cells were compared to cells without any peptide stimulation (CTL).
We also assessed the specific alkaline phosphatase activity (μmol de para-nitrophenol/min/mg of protein). To that goal, we lysed the cells using 300 μL of a buffer containing 0.2 M Tris-Base, 1.6 mM MgCl2 pH 8.1 and 1% Triton X-100. Samples were then placed into tubes and put on ice for 30 min. During this time, we alternated periods of 30 sec vortex and 5 min on ice. Then, samples were sonicated, and centrifugated for 15 min at 13 000 g, 4° C. Supernatant was collected, and total protein concentration was evaluated using bicinchoninic acid assay.
Alkaline phosphatase activity was measured by placing the harvested supernatants in para-nitrophenyl phosphate (pNPP) solution. The alkaline phosphatase will cleave this substrate and generate para-nitrophenol (pNP).
A solution of 4 mg/mL of pNPP is prepared in buffer A (0.1 M glycine pH 10.5, 0.11% (m/v) Zinc acetate and 0.011% magnesium chloride (m/v)). […]
Absorbance is read at 410 nm on a Varioskan Flash apparatus. Alkaline phosphatase activity is calculated based on the standard curve (equation A410=a×quantity(ρNP)+b) with the following formula: activity=((A(410 nm)−b)×reaction volume)/(a×sample volume×reaction time)

ATDC5 micromasses = assay: Glycosaminoglycan/proteoglycan quantification (Alcian blue staining) in ATDC5 micromasses; format: cell-based, mouse
Description: Mouse chondrogenic ATDC5 cells (cartilage-specific chondrogenic strain) were cultured until confluent in maintenance medium containing 1:1 Dulbecco's modified Eagle's medium (DMEM): Ham's F-12 mix (Gibco) supplemented with 1% antibiotic (AB, Penicillin-Streptomycin, Gibco), 5% fetal bovine serum (FBS) (Gibco) and enriched with […] human transferrin (Sigma) and 30 nM sodium selenite (Sigma). Cells were trypsinized, washed and resuspended at 2.10^7 cells/mL in a chondrogenic medium made of maintenance medium enriched by 1× of ITS premix (resulting in 10 μg/mL insulin, 10 μg/mL human transferrin and 30 nM sodium selenite) (Life technologies). One droplet of cell suspension (10 μL) was placed at the center of each well of a 24-well plate. Cells were allowed to adhere for 2 h at 37° C., followed by addition of 500 μL chondrogenic medium supplemented. […] After 14 days, induction of hypertrophic differentiation and mineralization was induced by the mineralization medium made of α-MEM medium (Gibco) containing 1% AB, 5% FBS, 5 μg/ml human transferrin, 1× of ITS premix, 50 μg/ml ascorbic acid-2-phosphate (AA) (Sigma) and 10 mM β-glycerophosphate (BGP) (Sigma). […] Micromasses were collected at time points 1, 7, 14 21 and 28 days. Each time point was processed in three technical replicates. The medium was changed every other day. […] The genes of interest were articular chondrocyte markers (aggrecan, type 2 collagen (col2a1)), YAP/TAZ target genes (ctgf, ankrd) and pro-catabolic enzymes involved in the pathophysiology of OA (mmp3, mmp13).
Micromasses were washed with PBS and fixed with 95% ice-cold ethanol for 30 min at 4° C. for staining. After washing with distilled water, micromasses were stained with Alcian Blue (0.1% Alcian Blue 8GX, (Sigma)), washed three times with distilled water to remove unbound staining and air-dried.

[5] = PEP16 at 100 or 300 ng/mL, day 7, 14, 21, normalized with S29
[6] = PEP16 at 300 ng/mL and wnt3a at 100 ng/mL, 24 and 48 h

“DRLGKKVKRWDMKLRH (PEP16) [peptide derived from the netrin-like domain of the FRZB protein]” was tested, and the “IL1β-induced MMP13 enzymatic activity in culture supernatant” value (MMP13) was “significantly reduced”, the “CamKII pathway activation (P-CamKII over total)” value (CamKII pathway [1]) was “increased the activation of the CamKII pathway” and the “expression of ANKRD (YAP/TAZ target gene)” value (MC3T3-E1 cells; PEP16 at 300 ng/ml or cells stably overexpressing the NTN domain, D1 and D14, vs control cells) was “managed to do so”. For the same sequence, the “relative expression level of osteocalcin” value (MC3T3-E1 cells; [5]) was “favoured the induction of the expression”, the “relative expression level of osterix” value (MC3T3-E1 cells; [5]) was “favoured the induction of the expression” and the “expression of Ankrd, a target gene of the Hippo/YAP/TAZ pathway” value ([2]; 300 ng/mL, 12 h of stimulation) was “capable of reducing the expression”. For the same sequence, the “expression of MMP3 induced by Wnt3a” value ([2]; 300 ng/mL, wnt3a at 100, 50, 30 ng/mL, 24 h of stimulation) was “counteract the inductive effects of Wnt3a”, the “relative expression level of aggrecan (decrease induced by Wnt3a)” value [2, 6] was “had a tendancy to counteract” and the “relative expression level of col2a1 (type 2 collagen; decrease induced by Wnt3a)” value [2, 6] was “had a tendancy to counteract”. The “increase of NGF induced by Wnt3a” value ([2]; PEP16 with Wnt3a, data not shown) was “had a tendancy to counteract”, the “Wnt/β-catenin pathway activation (active protein form over total protein form)” value (Wnt/β-catenin pathway) was “reduced in the activation of the Wnt/β-catenin pathway” and the “activity of the Hippo/YAP/TAZ pathway in a luciferase-type reporter system (Firefly/renilla ratio)” value [3] was “significantly reduced the activity”. For the same sequence, the CamKII pathway activation (CamKII pathway [4]) was “efficiently increased the activation”, the “specific alkaline phosphatase activity” value (alkaline phosphatase) was “tended to increase the alkaline phosphatase activity” and the “proteoglycans deposition in the extracellular matrix (Alcian blue, absorbance 650 nm)” value (ATDC5 micromasses; 300 ng/ml, 14 days, vs control cells) was “significantly increase the proteoglycans deposition”. For the same sequence, the “glycosaminoglycans quantification (accumulation in the extracellular matrix)” value (ATDC5 micromasses; PEP16 at 30, 100, 300 ng/mL, Alcian blue at day 28, blue pixels and biochemical quantification) was “significantly increased the accumulation of glycosaminoglycans”.
